Data on 1 compound can be found in patent US20040171680A1, “Treating Syndrome X with substituted tetralins and indanes” (priority 2002, published 2004).

The target of the assay is T1, PPARγ (Homo sapiens, UniProt P37231).
T1 construct: Following the challenge of the preadipocytes, cells may be lysed with lysis buffer; endogenous in cells; host or cells: preadipocytes
T1 sequence (P37231 1-505): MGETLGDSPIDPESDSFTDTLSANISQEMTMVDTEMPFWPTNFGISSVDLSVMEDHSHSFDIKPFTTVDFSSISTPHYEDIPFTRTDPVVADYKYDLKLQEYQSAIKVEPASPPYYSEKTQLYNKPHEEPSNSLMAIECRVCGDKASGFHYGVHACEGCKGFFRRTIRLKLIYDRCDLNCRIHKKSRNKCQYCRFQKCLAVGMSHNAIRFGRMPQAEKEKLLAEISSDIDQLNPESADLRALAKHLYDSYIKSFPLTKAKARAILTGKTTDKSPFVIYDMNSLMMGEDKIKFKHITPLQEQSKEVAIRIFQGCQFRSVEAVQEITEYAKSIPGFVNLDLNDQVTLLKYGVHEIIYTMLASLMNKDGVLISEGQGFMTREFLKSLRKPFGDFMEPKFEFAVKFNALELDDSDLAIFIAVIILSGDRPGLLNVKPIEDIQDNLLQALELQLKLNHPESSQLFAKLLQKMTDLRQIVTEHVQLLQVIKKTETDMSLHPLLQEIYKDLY
The experiment in a line: aP2 Assay for PPAR gamma Agonists (bDNA aP2 mRNA in preadipocytes). The settings on record: values in square brackets. The format is cell-based. The text has this: aP2 Assay for PPAR gamma Agonists
The procedure is described in detail in Burris et al., Molecular Endocrinology, 1999, 13:410, which is hereby incorporated by reference in its entirety, and aP2 assay results of agonist intrinsic activity may be presented as fold increase over vehicle in induction of aP2 mRNA production.
Twenty-four hours after the initial seeding of the 96-well plates by hand (around 20,000/well), the differentiation assay may be initiated. Medium may be removed and replaced with […] of differentiation medium containing vehicle (DMSO) or test compounds. Cells may be returned to incubator for 24 hours culture. At the termination of the challenge, medium may be removed and 100 ul of lysis buffer may be added to initiate the bDNA aP2 mRNA assay. The branched DNA assay may be performed according to the manufacturer's protocol (Bayer Diagnostics; Emeryville, Calif.). Result may be expressed as the fold increase of aP2 mRNA production activated over vehicle controls. EC50's and Emax may be determined by non-linear regression with a sigmoidal fit curve.
Following the challenge of the preadipocytes, cells may be lysed with lysis buffer (Bayer Diagnostics) containing the aP2 oligonucleotides. After a 15 minute incubation at 53° C. or 30 minutes at 37° C. incubator, 70 ul of the lysis buffer from each well may be added to a corresponding capture well (preincubated with 70 ul of blocking buffer (Bayer Diagnostics)). The capture plate may be incubated overnight at 53° C. in a plate incubator (Bayer Diagnostics). After this incubation, the bDNA and labeled probes may be annealed as directed by the manufacturer. Following a 30-minute incubation with the luminescent alkaline phosphatase substrate, dioxitane, the luminescence may be quantitated in a Dynex MLX microtiter plate luminometer. Oligonucleotide probes designed to anneal to the aP2 mRNA and function in the bDNA mRNA detection system are designed with ProbeDesigner software (Bayer Diagnostics). This software package analyzes a target sequence of interest with a series of algorithms in order to determine which regions of the sequence can perform as locations for capture, label, or spacer probe annealing. The sequences of the oligonucleotides are as follows: […]

SMILES strings stand for the structures. A value given as a limit tells only on which side of the number the result lay.

The compound `CCN(C(=O)Nc1ccc(OC(F)(F)F)cc1)C1CCc2cc(SC(C)(C)C(=O)O)c(F)cc2C1` (stereo not shown) [Example 50, 2-{6-[1-Ethyl-3-(4-trifluoromethoxyphenyl)ureido]-3-fluoro-5,6,7,8-tetrahydronaphthalen-2-ylsulfanyl}-2-methylpropionic acid] displayed a concentration giving a half-maximal response (EC50) of over 3 µM.
